In one series the target is T1, adenosine receptor A3 (Homo sapiens, UniProt P0DMS8).
T1 construct: host or cells: CHO
T1 sequence (P0DMS8 1-318): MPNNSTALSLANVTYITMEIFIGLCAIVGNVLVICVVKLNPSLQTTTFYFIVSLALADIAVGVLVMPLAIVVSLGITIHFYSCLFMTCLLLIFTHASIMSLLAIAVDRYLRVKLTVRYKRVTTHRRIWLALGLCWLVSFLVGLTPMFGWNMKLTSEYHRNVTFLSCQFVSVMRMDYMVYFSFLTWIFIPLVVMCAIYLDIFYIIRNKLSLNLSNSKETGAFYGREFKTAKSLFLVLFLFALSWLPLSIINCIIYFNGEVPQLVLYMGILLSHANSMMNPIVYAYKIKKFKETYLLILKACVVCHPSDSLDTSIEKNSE
Briefly: cAMP experiment on Gi-coupled adenosine receptor A3 (CHO). Type of series: cell-based. The note with it: cAMP accumulation; read-out: IC50 (nM) CHO cells (ADORA3). The protocol: Similarly, a CHO cell strain stably expressing the adenosine receptor A3 was taken as a study object (PerkinElmer, ES-012-C) for the experiment. The IC50 value of the compound was calculated.
In general terms: Cyclic AMP is a second messenger, typically raised through Gs and lowered through Gi signalling.

In another series the target is T2, adenosine receptor A2b (Homo sapiens, UniProt P29275).
T2 construct: host or cells: HEK293
T2 sequence (P29275 1-332): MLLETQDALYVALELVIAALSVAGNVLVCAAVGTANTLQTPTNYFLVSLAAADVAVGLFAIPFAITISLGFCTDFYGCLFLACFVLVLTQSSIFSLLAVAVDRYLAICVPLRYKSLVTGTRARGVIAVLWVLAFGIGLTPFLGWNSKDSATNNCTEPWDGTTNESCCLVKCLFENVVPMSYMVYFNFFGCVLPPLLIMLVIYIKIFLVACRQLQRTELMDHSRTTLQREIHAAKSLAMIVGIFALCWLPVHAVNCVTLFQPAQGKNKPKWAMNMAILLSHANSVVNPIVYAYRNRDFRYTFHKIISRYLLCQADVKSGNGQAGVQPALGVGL
Briefly: cAMP experiment on Gs-coupled adenosine receptor A2b (HEK293). Type of series: cell-based. The conditions noted are these: cAMP accumulation, NECA EC80; read-out: IC50 (nM) HEK293 cells (ADORA2B). As for the experimental part:
In this experiment, a HEK293 cell line stably expressing the adenosine receptor A2b was taken as a study object (PerkinElmer, ES-013-C) for the experiment. […] A solution system for cell inoculation was 10 μL of cAMP experimental buffer. […] Similarly, 10 mM test compound was also subjected to 3-fold gradient dilution in 100% DMSO. The gradient-diluted reference compound and test compound were added to a 384-well compound plate (Labcyte, PP-0200). 10 nL of the gradient-diluted reference agonist NECA per well was transferred to a test plate containing cells by using Echo (Labcyte, 550), and the test plate was incubated for 30 minutes at 37° C. 5 μL of Eu-cAMP tracer working solution and 5 μL of ULight-anti-cAMP working solution (PerkinElmer, TRF0263) were added to the test plate per well, and the test plate was incubated for 30 minutes at 25° C. […] 1000×EC80 NECA was prepared with 100% DMSO. […] The test plate was incubated for 20 minutes at 25° C., and then 10 nL of the 1000×EC80 NECA per well was transferred to the test plate. The test plate was incubated for 30 minutes at 37° C. 5 μL of Eu-cAMP tracer working solution and 5 μL of ULight-anti-cAMP working solution were added to the test plate per well, and the test plate was incubated for 30 minutes at 25° C. The fluorescence signal ratio of each well in the test plate was read, and the IC50 value of the compound was calculated by using the output data of the reference inhibitor and test compound and the concentration of the compound.

The nature of series [1]: Pharmacokinetics of Compounds 22, 27 and 40 in SD rats after oral administration for 7 consecutive days. Type of series: in vivo. The conditions noted are these: for Accumulation after consecutive administration: SD rats; for AUC / AUC(0-t) / Cmax / Tmax: rat, plasma; for AUC / Cavg / Cmin / AUC(0-t) / Cmax / Tmax: male SD rats; for AUC(0-t) / Cmax / Tmax: male, po, 30 mg/kg; for Tmax: median. The protocol: 12 male SD rats (about 7-9 weeks old on the day of administration, 283.0-298.1 g) were purchased from SPF (Beijing) Biotechnology Co., Ltd. They were randomly divided into 3 groups, with 4 rats in each group, and received orally administration once daily for 7 consecutive days. Compound 27 was administrated to Group 1 at 30 mg/kg, Compound 22 was administrated to Group 2 at 30 mg/kg, and Compound 40 was administrated to Group 3 at 30 mg/kg. All animals had free access to water and diet during dosing.
0.3366 g of Compound 27, 0.3333 g of Compound 22 and 0.3366 g of Compound 40 were weighed out respectively, and dissolved in 44 mL of PEG400 with stirring and ultrasonication; 50 mL of PBS was added to the resulting mixture, stirred and sonicated for complete dissolution; PBS was added to fix the volume to the final volume of 110 mL, thereby obtaining the target formulation solution with the final concentration of 3.0 mg/mL. The prepared formulation solution was divided into 7 portions, each of 15 mL, and stored in a refrigerator at 4° C. Before administration, the formulation was held at room temperature, until its temperature returned to room temperature; the formulation was stirred at room temperature for at least 10 minutes; and the stirring continued during the administration. The entire process for preparing the formulation was operated under yellow light, and during transferring, the prepared formulation was wrapped with tin foil to protect it from light.
The concentrations of Compounds 27, 22 and 40 in the plasma of SD rats were determined by liquid chromatography-mass spectrometry, with […] as the internal standard compound. With the mass spectrometer scanning in the electrospray ion source positive ion mode, the mass-to-charge ratios of parent ions to daughter ions in Compounds 27, 40 and 22 and tolbutamide were 395.2→178.2, 404.2→158.9, 393.4→146.2 and 455.2→165.0, respectively.
The pharmacokinetic parameters of Compounds 27, 40 and 22 were calculated by the software Phoenix™ WinNonlin Version 6.1 using the non-compartmental model. Pharmacokinetic data was calculated using the linear logarithmic trapezoidal method, with a weight of 1/Y*Y. Samples with the sample concentration below the lower limit of quantification were excluded from the calculation of pharmacokinetic parameters. […] The mean time to peak (Tmax) was represented as a median.

Setting [2] is: oral 30 mg/kg once a day for 7 consecutive days.
Where [3] appears, read: Sprague-Dawley, oral 30 mg/kg once a day for 7 consecutive days, Day 7, mean.
Setting [4] is: oral 30 mg/kg once a day for 7 consecutive days, Day 7, mean.
Where [5] appears, read: Sprague-Dawley (SD), oral 30 mg/kg once a day, Day 1, read-out: drug exposure AUC0-t.
The mark [6] stands for this setting: Sprague-Dawley (SD), oral 30 mg/kg once a day, Day 1, read-out: maximum plasma concentration Cmax.
[7] abbreviates: Sprague-Dawley (SD), oral 30 mg/kg once a day, seventh day, read-out: drug exposure AUC0-t.
[8] abbreviates: Sprague-Dawley (SD), oral 30 mg/kg once a day, seventh day, read-out: maximum plasma concentration Cmax.
Where [9] appears, read: Sprague-Dawley, oral 30 mg/kg once a day for 7 consecutive days, Day 7, mean, read-out: AUC0-t.
Where [10] appears, read: Sprague-Dawley, oral 30 mg/kg once a day for 7 consecutive days, Day 7, mean, read-out: Cmax.
The mark [11] stands for this setting: Sprague-Dawley, oral 30 mg/kg once a day for 7 consecutive days, Day 7.
[12] abbreviates: Sprague-Dawley, oral 30 mg/kg once a day, Day 1, mean, read-out: AUC0-t.
Setting [13] is: Sprague-Dawley, oral 30 mg/kg once a day, Day 1, mean, read-out: Cmax.
Setting [14] is: Sprague-Dawley, oral 30 mg/kg once a day, Day 1.

Read-outs that look alike come from different tables or passages of the source.

For `CCn1c(=O)c2c(nc(/C=C/c3ccc(OC)c(OC)c3)n2C)n(CC)c1=O` [Istradefylline, reference compound], the 50% inhibitory concentration (IC50) (usually the point on the concentration scale where inhibition reaches its midpoint) at adenosine receptor A3 amounted to 2080 nM.

Regarding `Cn1nnc(-c2ccc(CCNc3nc(N)n4nc(-c5ccco5)nc4n3)cc2)n1` [Compound 40, N5-(4-(2-methyl-2H-tetrazol-5-yl)phenethyl)-2-(furan-2-yl)-[1,2,4]triazolo[1,5-a][1,3,5]triazine-5,7-diamine], the half-inhibitory concentration (IC50) on adenosine receptor A2b worked out at 343 nM; at adenosine receptor A3 it was 928 nM. Further, in series [1] (setting [2]), the “Accumulation after consecutive administration” value (shortened to “Accumulation”) is “do not show significant accumulation”. The AUC – broadly, the area under the concentration-time curve, a measure of exposure – in series [1] (setting [3]) was found to be 6580 ng·h/mL. This compound also gave a Cavg in series [1] (setting [4]) of 274 ng/mL. For the same compound, in series [1] (setting [4]), the Cmin stood at 52.3 ng/mL. Further, the AUC(0-t) is 5150 ng·h/mL in series [1] (setting [5]), 6580 ng·h/mL in series [1] (setting [7]), 6580 ng·h/mL in series [1] (setting [9]) and 5150 ng·h/mL in series [1] (setting [12]). The Cmax was found to be 503 ng/mL in series [1] (setting [6]), 581 ng/mL in series [1] (setting [8]), 581 ng/mL in series [1] (setting [10]) and 503 ng/mL in series [1] (setting [13]). The Tmax (commonly the time from dosing to the highest level) in series [1] (setting [11]) was 4 h; in series [1] (setting [14]) it was 3 h.

In the case of `Nc1nc(NCCc2ccc(NC3COC3)cc2)nc2nc(-c3ccco3)nn12` [Compound 22, 2-(furan-2-yl)-N5-(4-(oxetan-3-ylamino)phenethyl)-[1,2,4]triazolo[1,5-a][1,3,5]triazine-5,7-diamine], the half-maximal inhibitory concentration (IC50) at adenosine receptor A2b is 380 nM; on adenosine receptor A3 it was 585 nM. Besides, in series [1] (setting [2]), the “Accumulation” value is listed as “do not show significant accumulation”. In series [1] (setting [3]), this compound came in with an area under the curve (AUC) of 6950 ng·h/mL. In addition, the Cavg in series [1] (setting [4]) was 290 ng/mL. For the same compound, the Cmin in series [1] (setting [4]) was found to be 11.4 ng/mL. Moreover, the AUC(0-t) is 6630 ng·h/mL in series [1] (setting [5]), 6950 ng·h/mL in series [1] (setting [7]), 6950 ng·h/mL in series [1] (setting [9]) and 6630 ng·h/mL in series [1] (setting [12]). For the same compound, the Cmax came out at 1020 ng/mL in series [1] (setting [6]), 947 ng/mL in series [1] (setting [8]), 947 ng/mL in series [1] (setting [10]) and 1020 ng/mL in series [1] (setting [13]). Also, the time to peak (Tmax) came out at 1.5 h in series [1] (setting [11]) and 4 h in series [1] (setting [14]).

Take `COCCNc1ccc(CCNc2nc(N)n3nc(-c4ccco4)nc3n2)cc1` [Compound 27, 2-(furan-2-yl)-N5-(4-((2-methoxyethyl)amino)phenethyl)-[1,2,4]triazolo[1,5-a][1,3,5]triazine-5,7-diamine]: the half-maximal inhibitory concentration (IC50) at adenosine receptor A2b worked out at 307 nM; on adenosine receptor A3 it was 458 nM. In series [1] (setting [2]), the “Accumulation” value is reported as “do not show significant accumulation”. In series [1] (setting [3]), this compound gave an AUC of 22200 ng·h/mL. For the same compound, in series [1] (setting [4]), the Cavg was found to be 925 ng/mL. In series [1] (setting [4]), the Cmin is listed as 9.23 ng/mL. In addition, the AUC(0-t) in series [1] (setting [5]) is 29600 ng·h/mL; in series [1] (setting [7]), 22200 ng·h/mL; in series [1] (setting [9]), 22200 ng·h/mL; in series [1] (setting [12]) it was 29600 ng·h/mL. For the same compound, the Cmax was determined as 7100 ng/mL in series [1] (setting [6]), 4620 ng/mL in series [1] (setting [8]), 4620 ng/mL in series [1] (setting [10]) and 7100 ng/mL in series [1] (setting [13]). Also, the figures for the Tmax in series [1] (setting [11]) and in series [1] (setting [14]) were 1.5 h and 2 h, respectively.

For the origin of these results see patent publication US20230048888A1, “USE OF TRIAZOLOTRIAZINE DERIVATIVE IN TREATMENT OF DISEASES” (ZHEJIANG VIMGREEN PHARMACEUTICALS, LTD., priority 2019, published 2023).
